Data on 53 compounds can be found in BindingDB's records for doi:10.7270/Q2MP51PC (Pcmd, 2008).

The assay concerns the target T1, Complement C1s subcomponent (Homo sapiens, UniProt P09871).
T1 sequence (P09871 whole entry): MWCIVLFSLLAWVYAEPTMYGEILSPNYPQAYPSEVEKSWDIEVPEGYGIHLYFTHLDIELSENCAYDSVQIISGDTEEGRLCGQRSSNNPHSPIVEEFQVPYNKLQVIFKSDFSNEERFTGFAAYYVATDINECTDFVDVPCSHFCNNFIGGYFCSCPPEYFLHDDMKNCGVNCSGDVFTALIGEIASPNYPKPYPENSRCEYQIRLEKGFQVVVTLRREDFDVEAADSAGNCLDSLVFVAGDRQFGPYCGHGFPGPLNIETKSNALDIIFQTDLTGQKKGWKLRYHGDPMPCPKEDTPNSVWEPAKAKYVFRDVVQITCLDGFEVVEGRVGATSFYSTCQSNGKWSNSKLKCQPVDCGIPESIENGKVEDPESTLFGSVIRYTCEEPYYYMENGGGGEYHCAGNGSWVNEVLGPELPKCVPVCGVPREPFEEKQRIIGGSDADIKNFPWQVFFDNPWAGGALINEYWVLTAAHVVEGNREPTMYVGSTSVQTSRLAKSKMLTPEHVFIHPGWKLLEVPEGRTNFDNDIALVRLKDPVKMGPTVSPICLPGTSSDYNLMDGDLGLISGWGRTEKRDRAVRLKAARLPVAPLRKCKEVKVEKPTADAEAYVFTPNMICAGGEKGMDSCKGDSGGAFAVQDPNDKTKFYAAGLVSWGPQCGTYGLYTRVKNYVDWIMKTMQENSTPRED
Kind of assay: C1s inhibitor IC50 values, dose response, biochemical (AID 787).
For orientation: IC50 means the concentration at which inhibition is half-maximal. Low values mean greater potency in that assay, high ones weaker potency in that assay. Turning to `COc1ccc(C(=O)n2nnc3ccccc32)cc1Br` [1-benzotriazolyl-(3-bromo-4-methoxyphenyl)methanone], the IC50 is 5.59 µM.

Compound `Cc1ccc(S(=O)(=O)n2nc(OC(=O)c3cccs3)cc2N)cc1` gave an IC50 of more than 50 µM.

In the case of `CCOC(=O)N1CCC2=C(C#N)C(=N)C(C#N)(C#N)[C@H](c3ccccc3OCC)[C@H]2C1` [(8R,8aR)-6-amino-5,7,7-tricyano-8-(2-ethoxyphenyl)-1,3,8,8a-tetrahydroisoquinoline-2-carboxylic acid ethyl ester], the 50% inhibitory concentration (IC50) was more than 50 µM.

For `CCSc1ccccc1C(=O)n1nnc2ccccc21`, the midpoint of inhibition, the IC50, lay at 31 µM.

Compound `O=C(Nc1cccc(F)c1)c1c(F)c(F)c(F)c(F)c1F` [2,3,4,5,6-pentafluoro-N-(3-fluorophenyl)benzamide] returned an IC50 of more than 50 µM.

Regarding `COc1ccccc1/N=C/c1nc(-c2ccccc2)oc1OC(C)=O` [SMR000039734], the IC50 is more than 50 µM.

Take `COc1ccc(C(=O)OCn2nnc3ccccc3c2=O)cc1OC` [(4-oxidanylidene-1,2,3-benzotriazin-3-yl)methyl 3,4-dimethoxybenzoate]: the IC50 was more than 50 µM.

As to `CC1CCCN(C(C(=O)Nc2ccc3c(c2)OCO3)c2ccccc2)C1` (stereo not drawn) [MLS000116117], the IC50 is more than 50 µM.

Consider `CCCC(=O)Nc1ccc(C(=O)n2nnc3ccccc32)cc1` [N-[4-(1H-1,2,3-benzotriazol-1-ylcarbonyl)phenyl]butanamide], for which half-maximal inhibition (IC50) was put at 0.38 µM. That is a sub-micromolar value.

As for `CC(C)NC(=O)c1cc(-c2ccc(Br)cc2)on1` [5-(4-bromophenyl)-N-isopropyl-isoxazole-3-carboxamide], the IC50 is more than 50 µM.

Regarding `O=C(NCc1ccco1)c1cccc(S(=O)(=O)N2CCCCC2)c1` [MLS000065416], the IC50 was more than 50 µM.

`CCOc1cc2[nH]c(=S)n(CC3CCCO3)c(=O)c2cc1OCC` (stereo not drawn) [6,7-diethoxy-3-(2-oxolanylmethyl)-2-sulfanylidene-1H-quinazolin-4-one] registered an IC50 of more than 50 µM.

`CCOC(=O)c1c(C)n(C(=O)c2ccco2)c(=O)n1C(=O)c1ccco1` displayed an IC50 of 8.54 µM.

Compound `Cc1ccc(NS(=O)(=O)c2cc(C(=O)N3CCOCC3)ccc2C)cc1C` [MLS000066131] had an IC50 of more than 50 µM.

In turn, `Oc1cccc(C(=S)N2CCN(Cc3ccccc3)CC2)c1` [(3-hydroxyphenyl)-[4-(phenylmethyl)-1-piperazinyl]methanethione] showed an IC50 of more than 50 µM.

For the compound `CC(C)(C)c1cc(C(=O)NCc2ccccc2)ccn1` [2-tert-butyl-N-(phenylmethyl)-4-pyridinecarboxamide], the 50% inhibitory concentration (IC50) is more than 50 µM.

The compound `Cc1noc(C)c1COC(=O)c1ccccc1NC(=O)Cc1ccccc1` [(3,5-dimethyl-1,2-oxazol-4-yl)methyl 2-(2-phenylethanoylamino)benzoate] showed an IC50 of more than 50 µM.

`CCCS(=O)(=O)N1CCC(C(=O)N2CCN(Cc3ccccc3)CC2)CC1` [(4-benzylpiperazin-1-yl)-(1-propylsulfonylpiperidin-4-yl)methanone] yielded a half-maximal inhibitory concentration (IC50) of more than 50 µM.

`CCOC(=O)c1sc(NC(=O)c2cc(S(=O)(=O)N3CCOCC3)ccc2C)nc1C` [4-methyl-2-[(2-methyl-5-morpholinosulfonyl-benzoyl)amino]thiazole-5-carboxylic acid ethyl ester] displayed an IC50 of more than 50 µM.

For `CCC(=O)n1nc(-c2ccco2)nc1SCc1ccccc1` [1-[3-(2-furanyl)-5-(phenylmethylthio)-1,2,4-triazol-1-yl]-1-propanone], the IC50 was more than 50 µM.

On to `CNC=C1C(=O)C(C)(C)Oc2ccc3ccc(=O)oc3c21` [(10Z)-8,8-dimethyl-10-(methylaminomethylene)pyrano[2,3-f]chromene-2,9-quinone], for which the IC50 is more than 50 µM.

Turning to `COC(=O)c1ccc(OC(=O)c2ccco2)cc1` [Furan-2-carboxylic acid 4-methoxycarbonyl-phenyl ester], the 50% inhibitory concentration (IC50) was 17.1 µM. In other words, the double-digit micromolar range.

`Cc1ccc(CCNC(=O)C2CCC(=O)N2Cc2cccnc2)cc1` (stereo not drawn) [5-keto-N-[2-(p-tolyl)ethyl]-1-(3-pyridylmethyl)pyrrolidine-2-carboxamide] returned an IC50 of more than 50 µM.

Turning to `CN(CCNC(=O)Cn1c(=O)sc2ccccc21)Cc1ccccc1` [MLS000116175], the IC50 was more than 50 µM.

As for `Cn1c(Cn2c(=O)sc3ccccc32)nnc1SCC(=O)NCc1ccccc1Cl` [MLS000118585], the IC50 was more than 50 µM.

Compound `CCOC(=O)c1ccc(CSc2nncn2N)o1` [5-[[(4-amino-1,2,4-triazol-3-yl)thio]methyl]-2-furancarboxylic acid ethyl ester] returned an IC50 of more than 50 µM.

For `COc1cc(-c2nnc(SCC(=O)c3cc(C)n(CC4CCCO4)c3C)o2)cc(OC)c1OC` (stereo not drawn) [1-[2,5-dimethyl-1-(2-oxolanylmethyl)-3-pyrrolyl]-2-[[5-(3,4,5-trimethoxyphenyl)-1,3,4-oxadiazol-2-yl]thio]ethanone], the IC50 was more than 50 µM.

For the compound `CCn1c(=O)c(C(C)=O)nc2ccccc21` [3-acetyl-1-ethyl-2-quinoxalinone], the IC50 is more than 50 µM.

Regarding `COc1ccc(C(=O)SC2=NCCS2)cc1OC` [3,4-dimethoxybenzenecarbothioic acid S-(4,5-dihydrothiazol-2-yl) ester], the IC50 is more than 50 µM.

In turn, `CCC(=O)Nc1cccc(-c2nc3ccccc3c(=O)o2)c1` [MLS000090237] showed a 50% inhibitory concentration (IC50) of 34.7 µM.

`CC(=O)c1c(OC(=O)c2ccco2)c2ccccc2n1C` [SMR000109417] returned an IC50 of 25.9 µM. This IC50 and that of the compound before are within 1.5-fold of each other.

Compound `O=C(Nc1cc(Cl)ccc1N1CCOCC1)c1cnccn1` [MLS000076142] came in with an IC50 of more than 50 µM.

Compound `Cc1coc2c(C)c3oc(=O)c4c(c3cc12)CCCC4` [7,10-dimethyl-1,2,3,4-tetrahydro-[1]benzofuro[6,5-c]isochromen-5-one] registered an IC50 of more than 50 µM.

In turn, `Cc1nn(C(=O)c2ccccc2)c2c1C(=O)CC(C)(C)C2` [SMR000069174] yielded an IC50 of 5.35 µM.

`CCOC(=O)C1CCN(C(=O)CSc2ccccc2)CC1` [1-[1-oxo-2-(phenylthio)ethyl]-4-piperidinecarboxylic acid ethyl ester] showed an IC50 of more than 50 µM.

Regarding `Cc1ccc(C(=O)Nc2nccs2)cc1S(=O)(=O)N1CCCCC1` [4-methyl-3-(1-piperidinylsulfonyl)-N-(2-thiazolyl)benzamide], the IC50 was more than 50 µM.

Regarding `Cc1cccc(COc2ccc(C(=O)C3C(=O)C(=O)N(CCN(C)C)C3c3ccncc3)cc2)c1` (stereo not drawn) [(4E)-1-[2-(dimethylamino)ethyl]-4-[[4-[(3-methylphenyl)methoxy]phenyl]-oxidanyl-methylidene]-5-pyridin-4-yl-pyrrolidine-2,3-dione], the IC50 is more than 50 µM.

`CCCN(c1nc(C)cc(OC)n1)S(=O)(=O)c1ccccc1` [MLS000087928] came in with an IC50 of more than 50 µM.

Take `COc1cccc(NC(=O)CCP(C)(=O)O)c1` [MLS000079835]: the IC50 was more than 50 µM.

For `O=C(c1ccco1)N1C(=O)c2cccc3cccc1c23` [1-(2-furoyl)benzo[cd]indol-2(1H)-one], the 50% inhibitory concentration (IC50) was more than 50 µM.

In the case of `CC1CNC(=Nc2cccc3ccccc23)S1` (stereo not drawn) [(5-methyl-2-thiazolin-2-yl)-(1-naphthyl)amine], the 50% inhibitory concentration (IC50) is more than 50 µM.

Take `CCc1c(C(=O)NCc2cnn(C)c2)csc1C` [4-ethyl-5-methyl-N-[(1-methyl-1H-pyrazol-4-yl)methyl]-3-thiophenecarboxamide]: the 50% inhibitory concentration (IC50) was more than 50 µM.

In the case of `CCCCN1C(=O)/C(=C2\SC(N3CCCCC3)=NC2=O)c2ccccc21` [MLS000111979], the IC50 is more than 50 µM.

In the case of `CCCCC(=O)Nc1ccc(NC(=O)c2ccc3c(c2)OCO3)cc1OC` [MLS000097195], the IC50 was more than 50 µM.

In turn, `O=C(Nc1nccs1)c1cccc(S(=O)(=O)N2CCCCC2)c1` [3-(1-piperidinylsulfonyl)-N-(2-thiazolyl)benzamide] gave a half-inhibitory concentration (IC50) of more than 50 µM.

`COc1ccc(CC(=O)Nc2cccc(-c3nnc(-c4cccc(C)c4)o3)c2)cc1OC` [2-(3,4-dimethoxyphenyl)-N-[3-[5-(3-methylphenyl)-1,3,4-oxadiazol-2-yl]phenyl]acetamide] showed a half-inhibitory concentration (IC50) of more than 50 µM.

In turn, `COc1ccc(NC(=O)c2[nH]cnc2C(=O)Nc2ccccc2C)cc1` [SMR000020470] displayed an IC50 of more than 50 µM.

Turning to `Cc1nn(C)c(C)c1NC(=O)c1ccnn1C` [2-Methyl-2H-pyrazole-3-carboxylic acid (1,3,5-trimethyl-1H-pyrazol-4-yl)-amide], the IC50 was more than 50 µM.

In turn, `O=C(Nc1nccs1)c1cccc(S(=O)(=O)N2CCOCC2)c1` [3-(4-morpholinylsulfonyl)-N-(2-thiazolyl)benzamide] showed a half-maximal inhibitory concentration (IC50) of more than 50 µM.

As to `Cc1csc(N(C(=O)c2cccc(S(=O)(=O)N(C)C)c2)c2ccccc2)n1` [3-(dimethylsulfamoyl)-N-(4-methyl-1,3-thiazol-2-yl)-N-phenyl-benzamide], the IC50 was more than 50 µM.

Consider `O=C(COC(=O)c1cnccn1)c1ccc(OC(=O)c2ccccc2)cc1` [2-pyrazinecarboxylic acid [2-(4-benzoyloxyphenyl)-2-oxoethyl] ester], for which the IC50 is more than 50 µM.

In turn, `Cc1ccc(-c2cc(C(=O)NCc3ccccn3)no2)cc1` [5-(4-methylphenyl)-N-(2-pyridinylmethyl)-3-isoxazolecarboxamide] returned an IC50 of more than 50 µM.

As for `O=C(Nc1nccs1)c1ccc(Cl)c(S(=O)(=O)N2CCOCC2)c1` [4-chloranyl-3-morpholin-4-ylsulfonyl-N-(1,3-thiazol-2-yl)benzamide], the 50% inhibitory concentration (IC50) was more than 50 µM.
